# Data taken from publication PMC7265429, “Characterization of a new small-molecule inhibitor of HDAC6 in glioblastoma” (Cell Death & Disease, 2020).
# Tested on: GNS166 cells
# Experiment: Microarray whole-transcriptome gene expression analysis
# Format: cell-based, human
# Method: Whole-transcriptome analysis was performed from 300 ng of RNA using HuGene-2_0-st-v1 expression array (Affymetrix), which covers 48,226 transcripts. Raw data were first checked for quality purposes through the Affymetrix® Expression Console™ Software v1.4.1 and TAC software v4.0. Then, data were normalized using the Robust Multi-array Average (RMA) and analyzed by Limma tool. Probesets with FDR-corrected p-values smaller than 0.05 were selected. Functional enrichment on Gene Ontology (GO) biological processes was performed on a smaller subset of the differentially expressed genes (corrected p-value < 0.001) by means of Broad Institute GSEA. […] The data that support this study have been deposited in NCBI´s Gene Expression Omnibus and are accessible through GEO series accession number GSE143887.
smiles,measurement,setting,value
"O=C(CCCCCCC(=O)Nc1ccccc1)NO [SAHA, Suberoylanilide hydroxamic acid]",logFC LIPA,"5 µM SAHA vs DMSO, transcript TC1000012577.hg.1",1.686
same,logFC ARNTL,"5 µM SAHA vs DMSO, transcript TC1100006899.hg.1",1.497
same,logFC C11orf74,"5 µM SAHA vs DMSO, transcript TC1100007307.hg.1",1.1776
same,logFC FAM111B,"5 µM SAHA vs DMSO, transcript TC1100007727.hg.1",1.402
same,logFC CYP2R1,"5 µM SAHA vs DMSO, transcript TC1100010185.hg.1",1.194
same,logFC SESN3,"5 µM SAHA vs DMSO, transcript TC1100012019.hg.1",1.415
same,logFC MMP12,"5 µM SAHA vs DMSO, transcript TC1100012134.hg.1",1.855
same,logFC BIRC3,"5 µM SAHA vs DMSO, transcript TC1100013087.hg.1",2.344
same,logFC CCND2,"5 µM SAHA vs DMSO, transcript TC1200006555.hg.1",1.786
same,logFC GPRC5A,"5 µM SAHA vs DMSO, transcript TC1200006896.hg.1",1.771
same,logFC STK38L,"5 µM SAHA vs DMSO, transcript TC1200007146.hg.1",1.792
same,logFC LRP1,"5 µM SAHA vs DMSO, transcript TC1200007861.hg.1",1.377
same,logFC TCP11L2,"5 µM SAHA vs DMSO, transcript TC1200008726.hg.1",1.788
same,logFC SLC2A3,"5 µM SAHA vs DMSO, transcript TC1200009800.hg.1",1.712
same,logFC ABCD2,"5 µM SAHA vs DMSO, transcript TC1200010413.hg.1",2.708
same,logFC NELL2,"5 µM SAHA vs DMSO, transcript TC1200010490.hg.1",2.463
same,logFC FAIM2,"5 µM SAHA vs DMSO, transcript TC1200010642.hg.1",1.773
same,logFC AGAP2,"5 µM SAHA vs DMSO, transcript TC1200010976.hg.1",1.559
same,logFC KITLG,"5 µM SAHA vs DMSO, transcript TC1200011460.hg.1",1.767
same,logFC LUM,"5 µM SAHA vs DMSO, transcript TC1200011495.hg.1",3.868
same,logFC FGD6,"5 µM SAHA vs DMSO, transcript TC1200011574.hg.1",1.639
same,logFC MGST1,"5 µM SAHA vs DMSO, transcript TC1200012597.hg.1",1.82
same,logFC CCNA1,"5 µM SAHA vs DMSO, transcript TC1300006879.hg.1",1.421
same,logFC SERTM1,"5 µM SAHA vs DMSO, transcript TC1300006883.hg.1",2.721
same,logFC NDFIP2,"5 µM SAHA vs DMSO, transcript TC1300007592.hg.1",1.353
same,logFC CLDN10,"5 µM SAHA vs DMSO, transcript TC1300007752.hg.1",1.556
same,logFC RAP2A,"5 µM SAHA vs DMSO, transcript TC1300007780.hg.1",1.182
same,logFC SLITRK6,"5 µM SAHA vs DMSO, transcript TC1300009394.hg.1",2.414
same,logFC KDELC1,"5 µM SAHA vs DMSO, transcript TC1300009674.hg.1",1.5525
same,logFC HSPA2,"5 µM SAHA vs DMSO, transcript TC1400007443.hg.1",3.285
same,logFC PPP4R4,"5 µM SAHA vs DMSO, transcript TC1400008058.hg.1",2.48
same,logFC TXNDC16,"5 µM SAHA vs DMSO, transcript TC1400009184.hg.1",1.763
same,logFC EGLN3,"5 µM SAHA vs DMSO, transcript TC1400010730.hg.1",2.2444
same,logFC CKMT1B,"5 µM SAHA vs DMSO, transcript TC1500007062.hg.1",2.569
same,logFC CKMT1A,"5 µM SAHA vs DMSO, transcript TC1500007067.hg.1",3.452
same,logFC IQCH,"5 µM SAHA vs DMSO, transcript TC1500007640.hg.1",1.591
same,logFC ARRDC4,"5 µM SAHA vs DMSO, transcript TC1500008470.hg.1",1.5
same,logFC GCOM1,"5 µM SAHA vs DMSO, transcript TC1500010744.hg.1",1.317
same,logFC ATP1B2,"5 µM SAHA vs DMSO, transcript TC1700006763.hg.1",3.1227
same,logFC TMEM107,"5 µM SAHA vs DMSO, transcript TC1700009676.hg.1",1.351
same,logFC CORO6,"5 µM SAHA vs DMSO, transcript TC1700010252.hg.1",1.546
same,logFC C1QL1,"5 µM SAHA vs DMSO, transcript TC1700010856.hg.1",1.605
same,logFC TTLL6,"5 µM SAHA vs DMSO, transcript TC1700011007.hg.1",1.858
same,logFC,"5 µM SAHA vs DMSO, transcript TC1700011261.hg.1",1.393
same,logFC TMEM241,"5 µM SAHA vs DMSO, transcript TC1800008281.hg.1",1.807
same,logFC REEP6,"5 µM SAHA vs DMSO, transcript TC1900006537.hg.1",1.987
same,logFC INAFM1,"5 µM SAHA vs DMSO, transcript TC1900008416.hg.1",2.5078
same,logFC PRKCG,"5 µM SAHA vs DMSO, transcript TC1900008825.hg.1",1.503
same,logFC RFPL4A,"5 µM SAHA vs DMSO, transcript TC1900008931.hg.1",3.505
same,logFC RFPL4AL1,"5 µM SAHA vs DMSO, transcript TC1900008932.hg.1",2.766
same,logFC KCNC3,"5 µM SAHA vs DMSO, transcript TC1900011194.hg.1",1.754
same,logFC FXYD7,"5 µM SAHA vs DMSO, transcript TC1900011710.hg.1",2.141
same,logFC RTBDN,"5 µM SAHA vs DMSO, transcript TC1900011892.hg.1",2.027
same,logFC RNF24,"5 µM SAHA vs DMSO, transcript TC2000008242.hg.1",1.55
same,logFC TASP1,"5 µM SAHA vs DMSO, transcript TC2000008436.hg.1",1.327
same,logFC FLRT3,"5 µM SAHA vs DMSO, transcript TC2000008445.hg.1",2.943
same,logFC CYP24A1,"5 µM SAHA vs DMSO, transcript TC2000009522.hg.1",1.58
same,logFC LCA5L,"5 µM SAHA vs DMSO, transcript TC2100008171.hg.1",1.839
same,logFC H1F0,"5 µM SAHA vs DMSO, transcript TC2200007318.hg.1",1.771
same,"logFC, unannotated transcript","DMSO vs SAHA, downregulated, transcript 23064072",-1.45
same,"logFC, unannotated transcript","DMSO vs SAHA, downregulated, transcript 23064958",-1.242
same,"logFC, unannotated transcript","DMSO vs SAHA, downregulated, transcript 23066344",-2.142
same,"logFC, unannotated transcript","DMSO vs SAHA, downregulated, transcript 23066350",-1.951
same,"logFC, unannotated transcript","DMSO vs SAHA, downregulated, transcript 23066369",-2.142
same,"logFC, unannotated transcript","DMSO vs SAHA, downregulated, transcript 23066376",-1.488
same,"logFC, unannotated transcript","DMSO vs SAHA, downregulated, transcript 23066377",-1.951
same,"logFC, unannotated transcript","DMSO vs SAHA, downregulated, transcript 23068519",-1.54
same,"logFC, unannotated transcript","DMSO vs SAHA, downregulated, transcript 23071518",-1.2407
same,"logFC, unannotated transcript","DMSO vs SAHA, downregulated, transcript 23074026",-1.4
same,"logFC, unannotated transcript","DMSO vs SAHA, downregulated, transcript 23074907",-1.601
same,"logFC, unannotated transcript","DMSO vs SAHA, downregulated, transcript 23075457",-1.338
same,"logFC, unannotated transcript","DMSO vs SAHA, downregulated, transcript 23075879",-1.002
same,"logFC, unannotated transcript","DMSO vs SAHA, downregulated, transcript 23076022",-1.002
same,"logFC, unannotated transcript","DMSO vs SAHA, downregulated, transcript 23076173",-1.06
same,"logFC, unannotated transcript","DMSO vs SAHA, downregulated, transcript HTA2-pos-3662482_st",-0.977
same,"logFC, unannotated transcript","DMSO vs SAHA, downregulated, transcript HTA2-pos-3671550_st",-1.877
same,"logFC, unannotated transcript","DMSO vs SAHA, downregulated, transcript HTA2-pos-3671554_st",-1.443
same,"logFC, unannotated transcript","DMSO vs SAHA, downregulated, transcript HTA2-pos-PSR17008077.hg.1",-1.062
same,"logFC, unannotated transcript","DMSO vs SAHA, downregulated, transcript HTA2-pos-PSR17008082.hg.1",-1.0258
same,"logFC, unannotated transcript","DMSO vs SAHA, downregulated, transcript HTA2-pos-PSR17013958.hg.1",-1.428
same,logFC ARAF,"DMSO vs SAHA, downregulated, transcript TC0X00007148.hg.1",-1.073
same,logFC RBM3,"DMSO vs SAHA, downregulated, transcript TC0X00007195.hg.1",-1.375
same,logFC SUV39H1,"DMSO vs SAHA, downregulated, transcript TC0X00007200.hg.1",-1.395
same,logFC PLP2,"DMSO vs SAHA, downregulated, transcript TC0X00007222.hg.1",-1.034
same,logFC PBDC1,"DMSO vs SAHA, downregulated, transcript TC0X00007686.hg.1",-1.452
same,logFC MID2,"DMSO vs SAHA, downregulated, transcript TC0X00008078.hg.1",-1.792
same,logFC HMGB3,"DMSO vs SAHA, downregulated, transcript TC0X00008724.hg.1",-1.132
same,logFC TAF9B,"DMSO vs SAHA, downregulated, transcript TC0X00010136.hg.1",-1.5452
same,logFC STS,"DMSO vs SAHA, downregulated, transcript TC0X00011259.hg.1",-1.335
